# Test results taken from US9388389B2, “JFH-1 based HCV cell culture systems for NS5A of genotypes 1-7” (Hvidovre Hospital, priority 2009, dated 2016).
# Assays:
# [1] = tested on: HCV NS5A genotype 1-7 recombinants; assay: BMS-790052 treatment of infected cultures, high-throughput assay; type: cell-based; details: Hepatitis C virus, most isolates
# Method: (§1) 5×10^3 naïve Huh7.5 cells were plated per well in a poly-D-lysine coated 96-well plate (Nunc, Roskilde, D K) one day before infection with different recombinant viruses. Infectious doses were chosen to aim at 400-1000 single infected cells in non-treated wells at the end of the experiment. J6/JFH1 was included with two infectious doses (high and low) to control for impact of dose variability. The infectious dose of other recombinants was in the range between. […] On day three cells were fixed and immunostained for NS3 expression as described above. In parallel, cell viability was monitored with CellTiter™ 96 AQueous One Solution Cell Proliferation Assay (Promega, Madison, Wis. USA). The number of single infected cells was determined by automated counting of individual wells as described above.
# (§2) To improve HCV treatment, much attention has been drawn to development of specific small molecule HCV inhibitors, including inhibitors of NS5A. Using the NS5A genotype recombinants, we investigated sensitivity to the NS5A inhibitor most advanced in clinical trials, BMS-790052. Treatment experiments using the specific NS5A inhibitor BMS-790052 (synthesized by Acme Bioscience, Palo Alto, Calif., USA) were conducted similar to what was described for interferon-alpha.
# [2] = tested on: H77C(1a)-Y93H; assay: BMS-790052 treatment of infected cultures; type: cell-based, hepatitis C virus
# Method: as §1, §2
# (§3) The best described resistance mutation for this drug class, change of NS5A residue 93, induced >10-fold resistance to BMS-790052 for genotype 1 replicons. We changed this residue to histidine in the NS5A genotype 1-6 recombinants; QC69(7a) naturally had histidine. In BMS-790052 treatment experiments, H77C(1a)-Y93H, JFH1(2a)-Y93H and S52(3a)-Y93H were >1000-fold, J4(1b)-Y93H, J6(2a)-Y93H and ED43(4a)-Y93H˜100-fold, and SA13(5a)-T93H and HK6a(6a)-T93H<5-fold more resistant than the respective original recombinants (Table 21). […] The presence of L31M in the J6(2a) isolate and C92E in the S52(3a) isolate corresponded to the higher resistance of these isolates. Further, the lower sensitivity of J1(1a) compared to other 1a recombinants could be caused by the histidine found at NS5A residue 30, previously associated with resistance in patients.
# [3] = tested on: HK6a(6a)-T93H; assay: BMS-790052 treatment of infected cultures; type: cell-based, hepatitis C virus
# Method: as §1, §2, §3
# [4] = tested on: J4(1b)-Y93H; assay: BMS-790052 treatment of infected cultures; type: cell-based, hepatitis C virus
# Method: as §1, §2, §3
# [5] = tested on: J6(2a)-Y93H; assay: BMS-790052 treatment of infected cultures; type: cell-based, hepatitis C virus
# Method: as §1, §2, §3
# [6] = tested on: J6/JFH1 with JFH1 NS5A domain I exchanged to the J6 sequence; assay: BMS-790052 treatment of infected cultures; type: cell-based, hepatitis C virus
# Method: as §1, §2, §3
# [7] = tested on: J6/JFH1 with NS5A mutation C92E; assay: BMS-790052 treatment of infected cultures; type: cell-based, hepatitis C virus
# Method: as §1, §2, §3
# [8] = tested on: J6/JFH1 with NS5A mutation L31M; assay: BMS-790052 treatment of infected cultures; type: cell-based, hepatitis C virus
# Method: as §1, §2, §3
# [9] = tested on: S52(3a)-Y93H; assay: BMS-790052 treatment of infected cultures; type: cell-based, hepatitis C virus
# Method: as §1, §2, §3
# [10] = tested on: SA13(5a)-T93H; assay: BMS-790052 treatment of infected cultures; type: cell-based, hepatitis C virus
# Method: as §1, §2, §3
# [11] = tested on: J6/JFH1 with NS5A mutation K30A; assay: BMS-790052 treatment of infected cultures; type: cell-based, hepatitis C virus
compound,measurement,setting,value
COC(=O)N[C@H](C(=O)N1CCC[C@H]1c1nc(-c2ccc(-c3ccc(-c4c[nH]c([C@@H]5CCCN5C(=O)[C@@H](NC(=O)OC)C(C)C)n4)cc3)cc2)c[nH]1)C(C)C [BMS-790052],EC50,[1],< 0.1 nM
same,Fold resistance compared to original,[2]; H77C(1a) Y93H vs original H77C(1a),4300 fold
same,fold more resistant than the respective original recombinant,[2]; H77C(1a)-Y93H,> 1000 fold
same,EC50,"[2]; Hepatitis C virus, H77C(1a), NS5A mutation Y93H, read-out: NS5A inhibitor, EC50 (nM), putative resistance mutant",110 nM
same,Fold resistance compared to original,[3]; HK6a(6a) T93H vs original HK6a(6a),4.3 fold
same,fold more resistant than the respective original recombinant,[3]; HK6a(6a)-T93H,< 5 fold
same,EC50,"[3]; Hepatitis C virus, HK6a(6a), NS5A mutation T93H, read-out: NS5A inhibitor, EC50 (nM), putative resistance mutant",0.14 nM
same,EC50,"[4]; Hepatitis C virus, J4(1b), NS5A mutation Y93H, read-out: NS5A inhibitor, EC50 (nM), putative resistance mutant",0.77 nM
same,Fold resistance compared to original,[4]; J4(1b) Y93H vs original J4(1b),82 fold
same,fold more resistant than the respective original recombinant,[4]; J4(1b)-Y93H,~100 fold
same,EC50,"[5]; Hepatitis C virus, J6(2a), NS5A mutation Y93H, read-out: NS5A inhibitor, EC50 (nM), putative resistance mutant",2000 nM
same,Fold resistance compared to original,[5]; J6(2a) Y93H vs original J6(2a),140 fold
same,fold more resistant than the respective original recombinant,[5]; J6(2a)-Y93H,~100 fold
same,EC50,"[6]; Hepatitis C virus, genotype 2a, J6 (domain I), single experiment of three replicates, read-out: NS5A inhibitor, EC50 (nM), original",19 nM
same,resistance,[6]; exchange of JFH1 NS5A domain I to the corresponding J6 sequence,confer resistance
same,EC50,"[7]; Hepatitis C virus, JFH1(2a), NS5A mutation C92E, single experiment of three replicates, read-out: NS5A inhibitor, EC50 (nM), putative resistance mutant",14 nM
same,Fold resistance compared to original,[7]; JFH1(2a) C92E vs original JFH1(2a),170 fold
same,resistance,[7]; NS5A C92E in the J6/JFH1 background,confer resistance
same,EC50,"[8]; Hepatitis C virus, JFH1(2a), NS5A mutation L31M, single experiment of three replicates, read-out: NS5A inhibitor, EC50 (nM), putative resistance mutant",17 nM
same,Fold resistance compared to original,[8]; JFH1(2a) L31M vs original JFH1(2a),190 fold
same,resistance,[8]; NS5A L31M in the J6/JFH1 background,confer resistance
same,EC50,"[9]; Hepatitis C virus, S52(3a), NS5A mutation Y93H, read-out: NS5A inhibitor, EC50 (nM), putative resistance mutant",1900 nM
same,Fold resistance compared to original,[9]; S52(3a) Y93H vs original S52(3a),2100 fold
same,fold more resistant than the respective original recombinant,[9]; S52(3a)-Y93H,> 1000 fold
same,EC50,"[10]; Hepatitis C virus, SA13(5a), NS5A mutation T93H, read-out: NS5A inhibitor, EC50 (nM), putative resistance mutant",0.14 nM
same,Fold resistance compared to original,[10]; SA13(5a) T93H vs original SA13(5a),4.2 fold
same,fold more resistant than the respective original recombinant,[10]; SA13(5a)-T93H,< 5 fold
same,EC50,"[11]; Hepatitis C virus, JFH1(2a), NS5A mutation K30A, single experiment of three replicates, read-out: NS5A inhibitor, EC50 (nM), putative resistance mutant",0.034 nM
same,Fold resistance compared to original,[11]; JFH1(2a) K30A vs original JFH1(2a),0.38 fold
